Results: US20220409727A1, “Metal Complexes Bearing Bisstyryl-Bipyridine Ligand and Their Use as Photosensitizer Agent in One and Two-Photon Photodynamic Therapy” (Paris Sciences et Lettres, priority 2019, published 2022)
Where two headings read alike, the source gives them in different places.

Legend:
[1] = Emission measurement in CH3CN; type: physicochemical; conditions: room temperature, excitation at 355 nm
Experimental: The absorption of the samples was measured with a SpectraMax M2 Spectrometer (Molecular Devices). The emission was measured by irradiation of the sample in fluorescence quartz cuvettes (width 1 cm) using a NT342B Nd-YAG pumped optical parametric oscillator (Ekspla) at 355 nm. Luminescence was focused and collected at right angle to the excitation pathway and directed to a Princeton Instruments Acton SP-2300i monochromator. As a detector, a XPI-Max 4 CCD camera (Princeton Instruments) has been used.

[2] = Luminescence quantum yield measurements; type: physicochemical; parameters: key: fraction, relative to [Ru(bipy)3]Cl2 reference in CH3CN (Φem=5.9%); conditions: CH3CN, room temperature, excitation at 355 nm
Experimental: For the determination of the luminescence quantum yield, the samples were prepared in an CH3CN solution with an absorbance of 0.1 at 355 nm. This solution was irradiated in fluorescence quartz cuvettes (width 1 cm) using a NT342B Nd-YAG pumped optical parametric oscillator (Ekspla) at 355 nm. The emission signal was focused and collected at right angle to the excitation pathway and directed to a Princeton Instruments Acton SP-2300i monochromator. As a detector a XPI-Max 4 CCD camera (Princeton Instruments) has been used. The luminescence quantum yields were determined by comparison with the reference [Ru(bipy)3]Cl2 in CH3CN (Φem=5.9%) (Nakamaru, K., 1982) applying the following formula:
Φem, sample=Φem, reference*(Freference/Fsample)*(Isample/Ireference)*(nsample/nreference)^2
Φem=luminescence quantum yield, F=fraction of light absorbed, I=integrated emission intensities, n=refractive index, A=absorbance of the sample at irradiation wavelength.

[3] = Luminescence lifetime measurements; type: physicochemical; conditions: excitation at 355 nm
Experimental: For the determination of the lifetimes, the samples were prepared in an air saturated and in a degassed CH3CN solution with an absorbance of 0.2 at 355 nm. This solution was irradiated in fluorescence quartz cuvettes (width 1 cm) using a NT342B Nd-YAG pumped optical parametric oscillator (Ekspla) at 355 nm. The emission signal was focused and collected at right angle to the excitation pathway and directed to a Princeton Instruments Acton SP-2300i monochromator. As a detector a R928 photomultiplier tube (Hamamatsu) has been used.

[4] = Singlet oxygen measurement, direct evaluation (1O2 luminescence at 1270 nm); type: physicochemical
Experimental: The samples were prepared in an air saturated CH3CN or D2O solution with an absorbance of 0.2 at 450 nm. This solution was irradiated in fluorescence quartz cuvettes (width 1 cm) using a mounted M450LP1 LED (Thorlabs) whose irradiation, centered at 450 nm, has been focused with aspheric condenser lenses. The intensity of the irradiation has been varied using a T-Cube LED Driver (Thorlabs) and measured with an optical power and energy meter. The emission signal was focused and collected at right angle to the excitation pathway and directed to a Princeton Instruments Acton SP-2300i monochromator. A longpass glass filter was placed in front of the monochromator entrance slit to cut off light at wavelengths shorter than 850 nm. As a detector an EO-817L IR-sensitive liquid nitrogen cooled germanium diode detector (North Coast Scientific Corp.) has been used. The singlet oxygen luminesce at 1270 nm was measured by recording spectra from 1100 to 1400 nm. For the data analysis, the singlet oxygen luminescence peaks at different irradiation intensities were integrated. The resulting areas were plotted against the percentage of the irradiation intensity and the slope of the linear regression calculated. The absorbance of the sample was corrected with an absorbance correction factor. As reference for the measurement Rose Bengal (Φ=76%) (Kochevar, I. E. and Redmond, R. W., 2000) was used and the singlet oxygen quantum yields were calculated using the following formula:
Φsample=Φreference*(Ssample/Sreference)*(Ireference/Isample)
Φ=singlet oxygen quantum yield, S=slope of the linear regression of the plot of the areas of the singlet oxygen luminescence peaks against the irradiation intensity, I=absorbance correction factor, […] of the irradiation source, A=absorbance of the sample at irradiation wavelength.

[5] = Singlet oxygen measurement, indirect evaluation (RNO absorbance); type: physicochemical; conditions: indirect
Experimental: For the measurement in CH3CN: The samples were prepared in an air-saturated CH3CN solution containing the complex with an absorbance of 0.2 at the irradiation wavelength, N,N-dimethyl-4-nitrosoaniline aniline (RNO, 24 μM) and imidazole (12 mM). For the measurement in PBS buffer: The samples were prepared in an air-saturated PBS solution containing the complex with an absorbance of 0.1 at the irradiation wavelength, N,N-dimethyl-4-nitrosoaniline aniline (RNO, 20 μM) and histidine (10 mM). The samples were irradiated on 96 well plates with an Atlas Photonics LUMOS BIO irradiator for different times. The absorbance of the samples was measured during these time intervals with a SpectraMax M2 Microplate Reader (Molecular Devices). The difference in absorbance (A0−A) at 420 nm for the CH3CN solution or at 440 nm a PBS buffer solution was calculated and plotted against the irradiation times. From the plot the slope of the linear regression was calculated as well as the absorbance correction factor determined. The singlet oxygen quantum yields were calculated using the same formulas as used for the direct evaluation.

[6] = test system: human cervical carcinoma (HeLa) cells; assay: (Photo-)cytotoxicity on 2D cell monolayers, resazurin assay, HeLa; type: cell-based
Description: Before an experiment, the cells were passaged three times.

[7] = test system: mouse colon carcinoma (CT-26) cells
Experimental: (§2) The human glioblastoma astrocytoma (U373) cell line was cultured in MEM medium supplemented with 10% FBS, 1% NEAA (non-essential amino-acids) and 1% penicillin/streptomycin. […] The human retinal epithelial cells (RPE-1, non-cancerous cells immortalized with hTERT) were cultured in DMEM-F12 medium supplemented with 10% FBS and 1% penicillin/streptomycin. All cell lines were obtained from the American Type Culture Collection (ATCC) and cultured at 37° C. and 5% CO2. Before an experiment, the cells were passaged three times.
(§3) The cytotoxicity of the compounds was assessed by measuring cell viability using a fluorometric resazurin assay. The cultivated cells were seeded in triplicates in 96 well plates with a density of 4000 cells per well in 100 μL of media. After 24 h, the medium was removed and the cells were treated with increasing concentrations of the compound diluted in cell media achieving a total volume of 200 μL. The cells were incubated with the compound for 4 h. After this time, the media was removed and replaced with 200 μL of fresh medium. For the phototoxicity studies, the cells were exposed to light with an Atlas Photonics LUMOS BIO irradiator. Each well was constantly illuminated with either a 480 nm or 540 nm irradiation. During this time, the temperature was maintained constantly at 37° C. The cells were grown in the incubator for additional 44 h. For the determination of the dark cytotoxicity, the cells were not irradiated and after the medium exchange directly incubated for 44 h. After this time, the medium was replaced with fresh medium containing resazurin with a final concentration of 0.2 mg/mL. After 4 h incubation, the amount of the fluorescent product resorufin was determined upon excitation at 540 nm and measurement its emission at 590 nm using a SpectraMax M2 Microplate Reader (Molecular Devices).
(§4) The obtained data was analyzed with the GraphPad Prism software.

[8] = test system: human glioblastoma astrocytoma (U373) cells
Experimental: as §2, §3, §4

[9] = test system: human glioblastoma astrocytoma (U373) cells; assay: (Photo-)cytotoxicity on 2D cell monolayers, resazurin assay, U373; conditions: for IC50: compounds 1-3 as chloride salts
Experimental: as §2, §3, §4

[10] = test system: non-cancerous retinal pigment epithelium (RPE-1) cells; assay: (Photo-)cytotoxicity on 2D cell monolayers, resazurin assay, RPE-1;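 further: cells exposed to compound 4 h, medium exchanged, then irradiated or kept dark, 44 h further growth, viability by resorufin fluorescence (ex 540 nm, em 590 nm)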
Experimental: as §2, §3, §4

[11] = test system: mouse colon carcinoma (CT-26) cells; assay: (Photo-)cytotoxicity on 2D cell monolayers, resazurin assay, CT-26; conditions: for IC50: compounds 1-3 as chloride salts
Experimental: as §2, §3, §4

[12] = reference for the measurement; cited from earlier work
[13] = CH3CN; cited from earlier work
[14] = test system: HeLa MCTS; assay: 3D multicellular tumor spheroids (MCTS) growth inhibition assay; type: cell-based, human
Experimental: (§1) autoclave. The hot emulsion was transferred into wells (50 μL per well) of a 96 cell culture well plate. The plates were exposed for 3 h to UV irradiation to ensure the sterility and allow the agarose solution to cool down. After this time, the agarose was overlayed with a HeLa cell suspension at a density of 3000 cells per well in 150 μL of media. The MCTS were cultivated and maintained at 37° C. in a cell culture incubator at 37° C. with 5% CO2 atmosphere. The culture media was replaced every two days. Within two-three days MCTs were formed from the cell suspension. The formation as well as integrity, diameter and volume of the MCTs was monitored by an Axio Observer Z1 (Carl Zeiss) phase contrast microscope. The volume was calculated using the following formula: V=4/3πr^3. The luminescence images along the z-axis were captured by a one-(λex=458 nm, λem=600-750 nm) or two-photon (λex=800 nm, λem=600-750 nm) excitation in the z-stack mode with a an LSM 880 (Carl Zeiss) laser scanning confocal microscope equipped with Argon and a Coherent Chameleon 2-Photon laser and a GaAsP detector.
MCTS were treated with the corresponding compounds (20 μM 1-7, 20 μM tetraphenylporphyrin H2TPP, 10 μM cisplatin, 30 μM cisplatin, 2% DMSO, v %) by replacing 50% of the media with drug supplemented media in the dark for three days. After this time, the MCTS were exposed to a two-photon irradiation (800 nm, 10 J/cm^2) with a section interval of 5 μm using a LSM 880 (Carl Zeiss) laser scanning confocal microscope equipped with a Coherent Chameleon 2-Photon laser. The cell culture media was replaced every two days. The integrity and diameter of the MCTs was monitored with an Axio Observer Z1 (Carl Zeiss) phase contrast microscope every 24 h.

[15] = test system: HeLa MCTS; assay: (Photo-)cytotoxicity on 3D multicellular tumor spheroids (ATP, CellTiter-Glo 3D); type: cell-based, human; conditions: dark, 12 h incubation, read-out: IC50 dark
Experimental: as §1
The cytotoxicity of the compounds in 3D multicellular tumor spheroids (MCTS) was assessed by measurement of the ATP concentration. MCTS were treated with increasing concentrations of the compound (2% DMSO, v %) by replacing 50% of the media with drug supplemented media and incubation for 12 h. After this time, the MCTS were divided in three identical groups. The first group was strictly kept in the dark. The second group was exposed to a one-photon irradiation (500 nm, 10 J/cm^2) using a LED and the third group was exposed to a two-photon irradiation (800 nm, 10 J/cm^2) with a section interval of 5 μm using a LSM 880 (Carl Zeiss, Germany) laser scanning confocal microscope equipped with a Coherent Chameleon 2-Photon laser. After the irradiation, all groups were incubated additional 48 h. The ATP concertation was measured using a CellTiter-Glo 3D Cell Viability kit (Promega) by measuring the generated chemiluminescence with an infinite M200 PRO (Tecan) plate reader.

[16] = dark, 4 h incubation, compounds 1-3 as chloride salts, read-out: IC50 dark
[17] = read-out: IC50 dark, U373, dark, 4 h incubation
[18] = read-out: IC50 dark, CT-26, dark, 4 h incubation

Structure (SMILES): COc1ccc(/C=C/c2ccnc(-c3cc(/C=C/c4ccc(OC)cc4)ccn3)c2)cc1.COc1ccc(/C=C/c2ccnc(-c3cc(/C=C/c4ccc(OC)cc4)ccn3)c2)cc1.COc1ccc(/C=C/c2ccnc(-c3cc(/C=C/c4ccc(OC)cc4)ccn3)c2)cc1.F[P-](F)(F)(F)(F)F.F[P-](F)(F)(F)(F)F.[Ru+2] [Compound 3, [Ru((E,E′)-4,4′-Bis[p-methoxystyryl]-2,2′-bipyridine)3][PF6]2]
- λem/nm (Emission maximum) [1]: 682 nm
- ϕem (Luminescence Quantum Yield) [2]: 0.011
- τ/ns air (Lifetime) ([3]; air saturated CH3CN): 76 ns
- τ/ns degassed (Lifetime) ([3]; degassed CH3CN): 338 ns
- Singlet oxygen quantum yield, direct 450 nm CH3CN [4]: 52%
- Singlet oxygen quantum yield, indirect 450 nm CH3CN ([5]; 450 nm, CH3CN): 48%
- Singlet oxygen quantum yield, indirect 450 nm PBS ([5]; 450 nm, PBS): 6%
- Singlet oxygen quantum yield, indirect 540 nm CH3CN ([5]; 540 nm, CH3CN): 49%
- Singlet oxygen quantum yield, indirect 540 nm PBS ([5]; 540 nm, PBS): 5%
- PI (480 nm) ([6]; dark vs 480 nm (10 min, 3.1 J/cm^2)): >6.5
- PI (540 nm) ([6]; dark vs 540 nm (40 min, 9.5 J/cm^2)): >8.8
- IC50 [6, 16]: > 100 µM
- IC50 ([6]; read-out: IC50 480 nm (10 min, 3.1 J/cm^2), irradiation 480 nm (10 min, 3.1 J/cm^2), compounds 1-3 as chloride salts): 15.3 ± 1.4 µM
- IC50 ([6]; read-out: IC50 540 nm (40 min, 9.5 J/cm^2), irradiation 540 nm (40 min, 9.5 J/cm^2), compounds 1-3 as chloride salts): 11.3 ± 2.2 µM
- IC50 [7]: 19.3 ± 2.1 µM
- IC50 [8]: 51.3 ± 3.4 µM
- PI (480 nm) ([9]; U373, dark vs 480 nm (10 min, 3.1 J/cm^2)): >2.4
- PI (540 nm) ([9]; U373, dark vs 540 nm (40 min, 9.5 J/cm^2)): >1.9
- IC50 ([9]; read-out: IC50 480 nm (10 min, 3.1 J/cm^2), U373, irradiation 480 nm (10 min, 3.1 J/cm^2)): 41 ± 3.5 µM
- IC50 [9, 17]: > 100 µM
- PI (480 nm) ([10]; RPE-1, dark vs 480 nm (10 min, 3.1 J/cm^2)): >1.9
- PI (540 nm) ([10]; RPE-1, dark vs 540 nm (40 min, 9.5 J/cm^2)): >2.2
- PI (480 nm) ([11]; CT-26, dark vs 480 nm (10 min, 3.1 J/cm^2)): >5.2
- PI (540 nm) ([11]; CT-26, dark vs 540 nm (40 min, 9.5 J/cm^2)): >4.3
- IC50 ([11]; read-out: IC50 540 nm (40 min, 9.5 J/cm^2), CT-26, irradiation 540 nm (40 min, 9.5 J/cm^2)): 23 ± 2.6 µM
- IC50 [11, 18]: > 100 µM

Structure (SMILES): O=C([O-])c1c(Cl)c(Cl)c(Cl)c(Cl)c1-c1c2cc(I)c(=O)c(I)c-2oc2c(I)c([O-])c(I)cc12.[Na+].[Na+] [Rose Bengal]
- Φ (singlet oxygen quantum yield of the reference) [12]: 76%

Structure (SMILES): [Cl-].[Cl-].[Ru+2].c1ccc(-c2ccccn2)nc1.c1ccc(-c2ccccn2)nc1.c1ccc(-c2ccccn2)nc1 [[Ru(bipy)3]Cl2]
- Φem (luminescence quantum yield of the reference) [13]: 5.9%

Structure (SMILES): N.N.[Cl][Pt][Cl] [cisplatin, reference compound]
- IC50 [6, 16]: 10.5 ± 0.8 µM
- effect on the tumours growth (MCTS volume) at 10 μM ([14]; 10 μM): weak effect
- effect on the tumours growth (MCTS volume) at 30 μM ([14]; 30 μM): significantly decreasing the volume
- IC50 [15]: 18.6 ± 1.3 µM
- IC50 [9, 17]: 17.6 ± 1.7 µM
- IC50 [11, 18]: 6.5 ± 1.1 µM
